Here are results for 1 compound from patent publication US20120046273A1, “COMPOUNDS AND COMPOSITIONS FOR COGNITION-ENHANCEMENT, METHODS OF MAKING, AND METHODS OF TREATING” (MITHRIDION, INC., priority 2009, published 2012).

In data set [1] the test system is hippocampal inositol phosphate signaling pathway. The experiment in a line: In vivo tissue inositol phosphate signaling pathway activation, hippocampus. Also noted: species or system rat. Conditions: normal rats, dose-dependent in the dose range 0.03 mg/kg to at least 3 mg/kg. On the procedure:
Experimental compounds or drug substances were administered using standard techniques to Long Evans Hooded rats weighing 225 to 350 grams, and which had been pretreated with a subcutaneous injection of lithium chloride at a suitable dose between 3 and 10 mmoles per kg. At suitable times the animals were briefly anesthetized using 5% isoflurane and euthanized by decapitation. The brains and submaxillary salivary glands were rapidly dissected out, and the hippocampuses were dissected from the brains. The dissected tissues were homogenized in a suitable volume of ice-cold phosphate-buffered saline containing 10 mM lithium chloride, pH7.4, using a tissue homogenizer, and used immediately or frozen in aliquots at −80degC. for future use. The concentration of inositol-1-phosphate was determined in the homogenates using the IPOne TR-FRET assay (CisBio cat no 621PAPEB), following the manufacturer's instruction

A further data set deals with anesthetized normal rats. Kind of data set: In vivo measurement of salivation. The arrangement: species or system rat. Conditions: anesthetized normal rats, dose-dependent between about 0.1 mg/kg and 1 mg/kg. Here is the method: Suitable doses of test compounds or drug substances were administered using standard techniques to Long Evans Hooded rats weighing 225 to 350 grams, or CD-1 mice weighing 30 to 50 grams, which had been anesthetized using 2-3.5%% of isoflurane in oxygen. The animals were placed slightly head-down on an inclined, heated ramp. Rectal temperature was monitored using a thermocouple and the temperature of the heating pad was adjusted manually to maintain normal body temperature. Saliva was collected from the mouth by absorption onto pre-weighed slips of filter paper. The filter paper was changed periodically and the amount of saliva was measured by weighing the filter paper slips

The subject of data set [2] is apomorphine induced climbing. The experiment in a line: Apomorphine induced climbing model of psychosis. The format is in vivo, CD-I mice. Summed up: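 CD-I mice (1-2 months) dosed subcutaneously under isoflurane with compound or PBS vehicle (PBS or 96% PBS/4% hydroxypropyl-beta-cyclodextrin, 5 ml/kg), then 2 mg/kg apomorphine 5 min later. Climbing (≥3 paws off ground) in wire mesh cylinders scored for 1 min every 5 min over 60 min after dosing.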

The next data set addresses T1, human FMO1 Supersomes (Homo sapiens, UniProt Q01740).
T1 construct: purchased BD Biosciences 456241
T1 sequence (Q01740 1-532): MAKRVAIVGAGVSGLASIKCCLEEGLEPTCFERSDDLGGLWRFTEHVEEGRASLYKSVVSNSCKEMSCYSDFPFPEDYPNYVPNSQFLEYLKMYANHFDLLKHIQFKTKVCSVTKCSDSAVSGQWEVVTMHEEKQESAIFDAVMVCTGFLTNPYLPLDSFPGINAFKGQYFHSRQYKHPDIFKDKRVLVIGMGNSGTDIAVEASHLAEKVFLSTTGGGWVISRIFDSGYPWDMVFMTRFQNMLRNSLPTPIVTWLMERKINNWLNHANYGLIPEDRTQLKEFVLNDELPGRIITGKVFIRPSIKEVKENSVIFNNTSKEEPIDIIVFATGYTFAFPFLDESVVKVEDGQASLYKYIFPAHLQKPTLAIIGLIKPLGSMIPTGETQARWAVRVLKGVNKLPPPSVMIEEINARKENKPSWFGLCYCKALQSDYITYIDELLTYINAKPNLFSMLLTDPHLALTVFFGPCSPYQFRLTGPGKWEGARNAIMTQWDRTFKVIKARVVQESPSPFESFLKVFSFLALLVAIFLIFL
The experiment in a line: Metabolism by flavin monoxygenase 1 (FMO1) Supersomes. The data set is classed as in vitro ADME. Here is the method: […] Aliquots were removed every 10 minutes, and 1% formic acid was added to halt the reaction. Samples were centrifuged, filtered through 0.2 micron spinfilter and the amount of each compound in the supernatants was quantitated using LC/MS/MS.

Data set [3] concerns pooled male Sprague-Dawley rat liver microsomes. The experiment in a line: Metabolism by rat liver microsomes. The data set is classed as in vitro ADME. The settings on record: 6 hours incubation. On the procedure: Compounds were incubated with pooled male Sprague-Dawley rat liver microsomes (BD Biosciences, #452501) and an NADP-regenerating system in a phosphate buffer (pH 7.4) for a total of 6 hours. Aliquots were removed every 2 hours, and 1% formic acid was added to halt the reaction. Samples were centrifuged, filtered through 0.2 micron spinfilter and the amount of each compound in the supernatants was quantitated using LC/MS/MS.
On the technique in general: Microsomes from liver hold many membrane-bound enzymes, among them those of drug oxidation.

The subject of data set [4] is pooled male human liver microsomes. Kind of data set: Metabolism by human liver microsomes. The data set is classed as in vitro ADME. Conditions: 6 hours incubation. Here is the method: Compounds were incubated with pooled male human liver microsomes (BD Biosciences, #452172) and an NADP-regenerating system in a phosphate buffer (pH 7.4) for a total of 6 hours. Aliquots were removed every 2 hours, and 1% formic acid was added to halt the reaction. Samples were centrifuged, filtered through 0.2 micron spinfilter and the amount of each compound in the supernatants was quantitated using LC/MS/MS.

The structures appear in SMILES notation.

Consider `Cc1noc(C2CCCNC2)n1` (racemic) [Compound 82, 3-Methyl-5-(piperidin-3-yl)-1,2,4-oxadiazole], for which the “PAMPA (? × 106)” value is given as 2.56 ? × 106 and the “rate of crossing the lipid layer in the PAMPA test” value was “much higher rate”. In addition, the “hippocampal IP response” value in data set [1] is “causes an increase in the hippocampal IP response”. Further, the salivation side effect entry with anesthetized normal rats is “causes salivation”. Moreover, the “Climbing Mean” value in data set [2] (82 (0.1 mg/kg) + APO) worked out at 8.9 s. For the same compound, the “Climbing Mean” value in data set [2] (82 + APO + N-Methyl Scopolamine (0.3 mg/kg)) was found to be 12.3 s. Besides, the “Climbing Mean” value in data set [2] (82 + APO + scopolamine (0.3 mg/kg)) came to 47.0 s. Besides, in data set [2] (mice, sc), the “activity in the apomorphine induced climbing model” value was “highly active and highly potent”; the “potency in inhibiting climbing compared with haloperidol” value is reported as “equipotent to haloperidol”. The “extent of metabolism in FMO Supersomes” value on human FMO1 Supersomes is “less than half metabolized”. Moreover, the “extent of metabolism in rat liver microsomes” value in data set [3] was “far more stable than compounds 126 and 127”. Besides, in data set [4], the “extent of metabolism in human liver microsomes” value is given as “metabolized significantly less in human liver microsomes than in rat liver microsomes”.
